Among the data in patent US9073975B2, “Cyclic peptides, their preparation and their use as inhibitors of the platelet adhesion” (SANOFI, priority 2010, dated 2015) are IC50 values, retold here.

The target of this experiment is T1, recombinant human vWF-A1 domain (Homo sapiens, UniProt P07359).
T1 construct: whole blood drawn from voluntary donors; made in house; host or cells: E. coli (vWF-A1); washed platelets from human donor blood (GPIb, endogenous)
Nature of the experiment: Static human platelet adhesion to recombinant human vWF-A1 domain. Particulars: washed calcein AM labeled human platelets, static conditions, 1.5 h adhesion; read-out: Activity (IC50 for inhibition of the binding of platelets to vWF A1 domain). It counts as cell-based.

Non-standard residues stand in square brackets, D forms with d. Residues, ends and D or L forms follow the SMILES beside them. Cha = N[C@@H](CC1CCCCC1)C(=O)O; Nle = CCCC[C@H](N)C(=O)O; Ahp = NCCCCCCC(=O)O

T1 sequence (P07359 17-652): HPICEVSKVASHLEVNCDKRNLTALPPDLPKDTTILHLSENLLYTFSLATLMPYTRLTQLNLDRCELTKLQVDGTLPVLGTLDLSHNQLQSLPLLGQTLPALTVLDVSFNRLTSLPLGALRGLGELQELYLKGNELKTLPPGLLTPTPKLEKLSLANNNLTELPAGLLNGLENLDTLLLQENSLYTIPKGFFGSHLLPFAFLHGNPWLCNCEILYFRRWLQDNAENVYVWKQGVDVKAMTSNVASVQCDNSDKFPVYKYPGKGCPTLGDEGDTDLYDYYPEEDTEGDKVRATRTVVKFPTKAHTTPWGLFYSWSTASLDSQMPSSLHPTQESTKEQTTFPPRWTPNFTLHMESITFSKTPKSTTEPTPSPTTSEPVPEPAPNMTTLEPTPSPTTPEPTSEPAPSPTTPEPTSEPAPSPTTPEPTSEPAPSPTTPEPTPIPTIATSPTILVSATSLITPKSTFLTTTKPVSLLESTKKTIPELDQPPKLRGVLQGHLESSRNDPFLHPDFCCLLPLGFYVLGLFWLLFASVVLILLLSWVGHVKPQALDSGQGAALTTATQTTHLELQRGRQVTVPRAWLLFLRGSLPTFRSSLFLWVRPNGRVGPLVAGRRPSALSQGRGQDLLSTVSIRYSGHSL
T1 sequence (P13224 26-206 partner): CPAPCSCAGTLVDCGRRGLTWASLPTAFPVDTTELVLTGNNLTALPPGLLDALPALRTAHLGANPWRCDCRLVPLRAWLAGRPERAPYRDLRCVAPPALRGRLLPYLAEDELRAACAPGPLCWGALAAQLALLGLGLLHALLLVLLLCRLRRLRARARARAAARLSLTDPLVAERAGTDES
T1 sequence (P14770 17-177 partner): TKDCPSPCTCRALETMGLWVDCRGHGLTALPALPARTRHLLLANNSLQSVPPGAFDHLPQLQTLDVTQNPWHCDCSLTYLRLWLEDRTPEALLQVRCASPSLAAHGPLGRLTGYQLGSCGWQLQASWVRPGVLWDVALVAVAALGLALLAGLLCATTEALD

Broadly, the IC50 is the concentration needed to halve the response being measured. Turning to `CC(C)C[C@@H]1NC(=O)[C@H](C)NC(=O)[C@H](CC2CCCCC2)NC(=O)[C@H](CCCNC(=N)N)NC(=O)[C@H](CCC(=O)O)NC(=O)[C@H]([C@@H](C)O)NC(=O)CCCCCCNC(=O)[C@H](CC(C)C)NC(=O)[C@H](CC(N)=O)NC(=O)[C@H](Cc2c[nH]cn2)NC1=O` [Example 17, Cyclo[Leu-His-Asn-Leu-NH—(CH2)6—CO-Thr-Glu-Arg-Cha-Ala]] (cyclo(ALHNL[Ahp]TER[Cha])), the IC50 is < 1 µM. Turning to `COC[C@@H]1NC(=O)[C@H](CCCNC(=N)N)NC(=O)[C@H](CCC(=O)O)NC(=O)[C@H]([C@@H](C)O)NC(=O)CCCCCCNC(=O)[C@H](CC(C)C)NC(=O)[C@H](CC(N)=O)NC(=O)[C@H](Cc2c[nH]cn2)NC(=O)[C@H](CC(C)C)NC(=O)[C@H](C)NC1=O` [Example 45, Cyclo[Leu-His-Asn-Leu-NH—(CH2)6—CO-Thr-Glu-Arg-Amp-Ala]] (cyclo(ALHNL[Ahp]TERS(Me))), the IC50 is < 1 µM. In the case of `CCCC[C@@H]1NC(=O)[C@H](CCCNC(=N)N)NC(=O)[C@H](CCC(=O)O)NC(=O)[C@H]([C@@H](C)O)NC(=O)CCCCCCNC(=O)[C@H](CC(C)C)NC(=O)[C@H](CC(N)=O)NC(=O)[C@H](Cc2c[nH]cn2)NC(=O)[C@H](CC(C)C)NC(=O)[C@H](C)NC1=O` [Example 43, Cyclo[Leu-His-Asn-Leu-NH—(CH2)6—CO-Thr-Glu-Arg-Nle-Ala]] (cyclo(ALHNL[Ahp]TER[Nle])), the IC50 was < 1 µM.
